Data taken from patent US20120088688A1, “IN VITRO ASSAY FOR IDENTIFICATION OF ALLERGENIC PROTEINS” (BIOVATOR TECHNOLOGIES AB, priority 2005, published 2012).
Counter-ions that a name gives are not always drawn.

Tested on: Mono Mac 6 cells
Experiment: Micro array gene expression profiling (HG_U95Av2 chip) of Mono Mac 6 cells following allergen treatment
Assay type: cell-based, human
Conditions: for Number of up regulated genes: Mono Mac 6 cells
Description: The cell line Mono Mac 6 (AstraZeneca Cell Storage and Retrieval, Alderley Park, UK) was cultivated in RPMI 1640 medium with 10 mM HEPES buffer (Gibco, UK), 2 mM L-glutamine, 9 μg/mL human insulin, 1.0 mM sodium pyruvate, 10% fetal bovine serum, 5.6 μl/mL glucose, 100 U/mL penicillin and 100 μg/ml streptomycin. Fresh medium for cultivation was added or changed frequently (every 2:nd or 3:rd day), maintaining a cell density of viable cells/mL between 0.5×10^6 and 1.0×10^6. The cell line was in suspension/loosely adherent and sub cultures were prepared when needed by scraping. The plates were cultivated in an inclined position at 37° C. and 5% CO2 in a Galaxy R (Lab Rum Klimat Ab, Sweden) incubator
Cells were treated with four different allergens, according to table 2, in duplicate cultures. The test substances were all diluted in double distilled water. The duplicate cultures were treated at different exposure days. All treatments were 6 hours and control cells were left unexposed.
20 individual cultures with 500 000 cells per culture were treated identical for each substance. After 6 h exposure identical treated cells were harvest and pooled into a 50 ml Falcontube, pelleted at 540 g for 5 minutes in 7° C. […] The supernatant was removed and the cells were freeze-dried with liquid nitrogen and thereafter put into −152° C. freezer until further preparation.
Experimental procedures were performed according to Gene Chip®Expression Analysis Technical Manual (rev1, 2001) with minor modifications as described. Total RNA was prepared from frozen cells, according to Qiagen Rneasy Mini kit (Qiagen/WVR, Sweden). 30 μg of total RNA was used for cDNA synthesis and in vitro transcript labeling with biotin was performed according to Enzo BioArray RNA Transcription Labeling Kit (Enzo, U.S.A). cRNA quality was analyzed on a Agilent Bioanalyser 2001 (Agilent Technologies, U.S.A) and the concentration was measured on a Nano Droop (Saveen Werner, Sweden). 15 μg of fragmented cRNA was added to the hybridization-cocktail and hybridized to the HG_U95Av2 chip (Affymetrix, U.S.A) for 16 h at 45° C. The arrays were washed and stained with biotinylated anti streptavidin antibodies according to the EukGE_W2v4 protocol (Affymetrix, U.S.A) in the fluid station (Affymetrix, U.S.A).
Data obtained were analyzed using the MAS 5.0 model base. A detection call was calculated for all probe sets, representing if the transcript of a particular gene was present or absent, all absent genes were excluded from analysis.
To verify outliers and trends in data exploratory analysis was made with principle component analysis (PCA). Statistic analysis was made using student's t-test. It weights the variance in individual groups with the variance in all groups. Student's t-test was used to test for statistical significance compared with control. The p-value obtained describes the probability of statistically finding a false positive probe set. Fold change (fc) represents the quotient between the two compared chip.
The average signal value from all treated groups were compared with control signals.
All probe sets with signal value<50 in all groups were excluded from analysis. […] The remaining probe sets were ranked after fc.

## CC1(C)S[C@@H]2[C@H](NC(=O)Cc3ccccc3)C(=O)N2[C@H]1C(=O)O [penicillin G, Benzylpenicillin sodium salt]
Cut off fc >2
  Number of up regulated genes: 4
Cut off fc >4
  Number of up regulated genes: 1
Cut off fc >6
  Number of up regulated genes: 0
Cut off fc >10
  Number of up regulated genes: 0
Gene GPR15
  vs ctrl fc, GPR15: 2.2
Gene IFITM3
  vs ctrl fc, IFITM3: 3.3
Gene XK
  vs ctrl fc, XK: 2.6
Systematic name none, c 33.28 unnamed HERV-H protein mRNA
  vs ctrl fc, c 33.28 unnamed HERV-H protein mRNA: 9.1
